Experimental data reported in ChEMBL document CHEMBL1811769, “Bioactive 11,20-epoxy-3,5(16)-diene briarane diterpenoids from the South China Sea gorgonian Dichotella gemmacea” (J Nat Prod, 2011).
Calls of active or inactive are those of the source. The rule behind the calls is not given here.

Tests used:
Priestia megaterium = test: Antibacterial activity against Bacillus megaterium at 0.05 mg by agar diffusion method; type: functional; conditions: for zone of inhibition at 50 µg/disc: read-out: DIZ
Zymoseptoria tritici = test: Antifungal activity against Septoria tritici at 0.05 mg by agar diffusion method; type: functional; conditions: for zone of inhibition at 50 µg/disc: read-out: DIZ
Escherichia coli = test: Antibacterial activity against Escherichia coli at 0.05 mg by agar diffusion method; type: functional; conditions: for zone of inhibition at 50 µg/disc: read-out: DIZ
Microbotryum violaceum = test: Antifungal activity against Microbotryum violaceum at 0.05 mg by agar diffusion method; type: functional; conditions: for zone of inhibition at 50 µg/disc: read-out: DIZ
A549 = test: Growth inhibition of human A549 cells by MTT assay; type: functional, cell-based
MG-63 = test: Growth inhibition of human MG63 cells by MTT assay; type: functional, cell-based

SMILES | zone of inhibition at 50 µg/disc (Priestia megaterium) | zone of inhibition at 50 µg/disc (Zymoseptoria tritici) | zone of inhibition at 50 µg/disc (Escherichia coli) | zone of inhibition at 50 µg/disc (Microbotryum violaceum) | diameter of the inhibition zone (DIZ) (Priestia megaterium) | diameter of the inhibition zone (DIZ) (Zymoseptoria tritici) | diameter of the inhibition zone (DIZ) (Escherichia coli) | diameter of the inhibition zone (DIZ) (Microbotryum violaceum) | IC50 (A549) | IC50 (MG-63)
CC(=O)N1CCN(c2ccc(OCC3COC(Cn4ccnc4)(c4ccc(Cl)cc4Cl)O3)cc2)CC1 (stereo not drawn) [KETOCONAZOLE] | 18 mm | 25 mm | 18 mm | 30 mm |  |  |  |  |  | 
C=C1/C=C/[C@H](OC(C)=O)[C@@]2(C)[C@@H](OC(C)=O)CC[C@]3(CO3)[C@@H]2[C@H](OC(C)=O)[C@]2(O)[C@@H](C)C(=O)O[C@H]2[C@H]1Cl |  |  |  |  | inactive | inactive | inactive | inactive |  | 
COc1cccc2c1C(=O)c1c(O)c3c(c(O)c1C2=O)C[C@@](O)(C(=O)CO)C[C@@H]3O[C@H]1C[C@H](N)[C@H](O)[C@H](C)O1 [DOXORUBICIN] |  |  |  |  |  |  |  |  | 2.8 µM | 2.8 µM
C=C1/C=C/[C@H](OC(C)=O)[C@@]2(C)[C@@H](OC(C)=O)[C@@H](OC(=O)CC(C)C)[C@@H](OC(C)=O)[C@]3(CO3)[C@@H]2[C@H](OC(C)=O)[C@]2(O)[C@@H](C)C(=O)O[C@H]2[C@H]1Cl |  |  |  |  | inactive | inactive | inactive | inactive |  | 
C=C1/C=C/[C@H](OC(C)=O)[C@@]2(C)[C@@H](OC(C)=O)[C@@H](OC(C)=O)[C@@H](OC(=O)CC(C)C)[C@]3(CO3)[C@@H]2[C@H](OC(C)=O)[C@]2(O)[C@@H](C)C(=O)O[C@H]2[C@H]1Cl [GEMMACOLIDE J] | 16 mm |  |  |  |  |  |  |  | < 1.4 µM | 79.8 µM
C=C1/C=C/[C@H](OC(C)=O)[C@@]2(C)[C@@H](OC(C)=O)C[C@@H](OC(C)=O)[C@]3(CO3)[C@@H]2[C@H](OC(C)=O)[C@]2(O)[C@@H](C)C(=O)O[C@H]2[C@H]1Cl [GEMMACOLIDE H] |  |  |  |  | inactive | inactive | inactive | inactive | 47.3 µM | 54 µM
CN[C@@H]1[C@H](O[C@H]2[C@H](O[C@H]3[C@H](O)[C@@H](O)[C@H](N=C(N)N)[C@@H](O)[C@@H]3N=C(N)N)O[C@@H](C)[C@]2(O)C=O)O[C@@H](CO)[C@H](O)[C@H]1O [STREPTOMYCIN] | 11 mm | 11 mm | 18 mm | 16 mm |  |  |  |  |  | 
C=C1/C=C/[C@H](OC(C)=O)[C@@]2(C)[C@@H](OC(C)=O)C[C@@H](OC(=O)CC(C)C)[C@]3(CO3)[C@@H]2[C@H](OC(C)=O)[C@]2(O)[C@@H](C)C(=O)O[C@H]2[C@H]1Cl [GEMMACOLIDE I] |  |  |  |  | inactive | inactive | inactive | inactive | 20.6 µM | 25 µM
C=C1/C=C/[C@H](OC(C)=O)[C@@]2(C)[C@@H](OC(C)=O)[C@@H](OC(C)=O)[C@@H](OC(C)=O)[C@]3(CO3)[C@@H]2[C@H](OC(C)=O)[C@]2(O)[C@@H](C)C(=O)O[C@H]2[C@H]1Cl [GEMMACOLIDE G] |  |  |  |  | inactive | inactive | inactive | inactive | 8.4 µM | 38.4 µM
CC1(C)S[C@@H]2[C@H](NC(=O)Cc3ccccc3)C(=O)N2[C@H]1C(=O)O [PENICILLIN G] | 26 mm | 12 mm | 8 mm | 14 mm |  |  |  |  |  | 
